According to patent US10273221B2, “Microbiocidal heterobicyclic derivatives” (Syngenta Participations AG, priority 2015, dated 2019):

Legend:
Fusarium culmorum = assay: microbe, parasite or virus in culture; assay type: cell-based; settings: 72 h, read-out: disease control
[1] = test system: Monographella nivalis (Microdochium nivale); assay: Monographella nivalis (Microdochium nivale) / liquid culture (foot rot cereals); assay type: cell-based; settings: 96 h, growth inhibition determined photometrically 4-5 days after application, vs untreated control, read-out: disease control
[2] = test system: Glomerella lagenarium (Colletotrichum lagenarium); assay: Glomerella lagenarium (Colletotrichum lagenarium) / liquid culture (anthracnose); assay type: cell-based; settings: Colletotrichum orbiculare, growth inhibition measured photometrically 3-4 days after application, vs untreated control, read-out: disease control
[3] = test system: Botryotinia fuckeliana (Botrytis cinerea); assay: Botryotinia fuckeliana (Botrytis cinerea) / liquid culture (gray mould); assay type: cell-based; settings: growth inhibition determined photometrically 3-4 days after application, vs untreated control, read-out: disease control
Gaeumannomyces graminis = Gaeumannomyces graminis / liquid culture (take-all of cereals); assay type: cell-based; settings: growth inhibition determined photometrically 4-5 days after application, vs untreated control, read-out: disease control
Pyrenophora teres = Pyrenophora teres / liquid culture (net blotch); assay type: cell-based; settings: growth inhibition determined photometrically 3-4 days after application, vs untreated control
[4] = test system: Magnaporthe grisea (Pyricularia oryzae); assay: microbe, parasite or virus in culture; assay type: cell-based; settings: 72 h, read-out: control of Magnaporthe grisea
Sclerotinia sclerotiorum = Sclerotinia sclerotiorum / liquid culture (cottony rot); settings: 72 h, read-out: control of Sclerotinia sclerotiorum
Procedure: Sclerotinia sclerotiorum/Liquid Culture (Cottony Rot)
Mycelia fragments of a newly grown liquid culture of the fungus are directly mixed into nutrient broth (Vogels broth). After placing a (DMSO) solution of test compound into a microtiter plate (96-well format) the nutrient broth containing the fungal material is added. The test plates are incubated at 24° C. and the inhibition of growth is determined photometrically 3-4 days after application.

In the case of `Cc1cccc2c1ncn2C1=NC(C)(C)C(F)(F)c2ccccc21`, the melting point is reported as 142 to 149 °C.
In the case of `CC1(C)N=C(n2cnc3ccccc32)c2cccc(F)c2C1(C)C` [E-2], the inhibition of growth at 200 ppm (Fusarium culmorum) is reported as no less than 80%, the inhibition of growth at 200 ppm [1] is reported as no less than 80% and the inhibition of growth at 200 ppm [2] is reported as no less than 80%. The inhibition of growth at 200 ppm [3] was no less than 80%.
`CC1(C)N=C(n2cnc3ccccc32)c2ccccc2C12CC2` [E-3, 1′-(benzimidazol-1-yl)-3′,3′-dimethyl-spiro(cyclopropane-1,4′-isoquinoline)] gave an inhibition of growth at 200 ppm [2] of no less than 80%, an inhibition of growth at 200 ppm [3] of no less than 80% and an inhibition of growth at 200 ppm (Gaeumannomyces graminis) of no less than 80%.
For `CC1(C)N=C(n2cnc3c(C(F)(F)F)cccc32)c2cccc(F)c2C1(C)C` [E-5], the inhibition of growth at 20 ppm (Pyrenophora teres) was no less than 80%, the inhibition of growth at 200 ppm [1] was no less than 80% and the inhibition of growth at 200 ppm [2] was no less than 80%. It also gave an inhibition of growth at 200 ppm [3] of no less than 80% and an inhibition of growth at 20 ppm [4] of no less than 80%.
`COc1cccc2c1ncn2C1=NC(C)(C)C(C)(C)c2c(F)cccc21` [E-6] showed an inhibition of growth at 20 ppm (Pyrenophora teres) of no less than 80%, an inhibition of growth at 200 ppm [1] of no less than 80% and an inhibition of growth at 200 ppm [2] of no less than 80%. For the same compound, the inhibition of growth at 200 ppm [3] was no less than 80% and the inhibition of growth at 20 ppm [4] was no less than 80%.
For `CC1(C)N=C(n2cnc3c(C4CC4)cccc32)c2cccc(F)c2C1(C)C` [E-8], the inhibition of growth at 200 ppm [1] was no less than 80%, the inhibition of growth at 200 ppm [2] was no less than 80% and the inhibition of growth at 200 ppm [3] was no less than 80%. It also gave an inhibition of growth at 20 ppm [4] of no less than 80% and an inhibition of growth at 200 ppm (Gaeumannomyces graminis) of no less than 80%.
For `Cc1cccc2c1ncn2C1=NC(C)(C)C(=O)c2ccccc21` [E-10], the inhibition of growth at 20 ppm (Pyrenophora teres) was no less than 80%, the inhibition of growth at 200 ppm [1] was no less than 80% and the inhibition of growth at 200 ppm [2] was no less than 80%. For the same compound, the melting point was 123 to 125 °C, the inhibition of growth at 200 ppm [3] was no less than 80% and the inhibition of growth at 20 ppm [4] was no less than 80%.
Compound `C=C(C)c1cccc2c1ncn2C1=NC(C)(C)C(C)(C)c2c(F)cccc21` [E-11] has an inhibition of growth at 20 ppm (Pyrenophora teres) of no less than 80%, an inhibition of growth at 200 ppm [1] of no less than 80% and an inhibition of growth at 200 ppm [2] of no less than 80%. It also gave an inhibition of growth at 200 ppm [3] of no less than 80% and an inhibition of growth at 20 ppm [4] of no less than 80%.
For `CC(C)c1cccc2c1ncn2C1=NC(C)(C)C(C)(C)c2c(F)cccc21` [E-12], the inhibition of growth at 20 ppm (Pyrenophora teres) was no less than 80%, the inhibition of growth at 200 ppm [1] was no less than 80% and the inhibition of growth at 200 ppm [2] was no less than 80%. For the same compound, the melting point was 113 to 114 °C, the inhibition of growth at 200 ppm [3] was no less than 80% and the inhibition of growth at 20 ppm [4] was no less than 80%.
`C=Cc1cccc2c1ncn2C1=NC(C)(C)C(C)(C)c2c(F)cccc21` [E-13] showed an inhibition of growth at 20 ppm (Pyrenophora teres) of no less than 80%, an inhibition of growth at 200 ppm [1] of no less than 80% and an inhibition of growth at 200 ppm [2] of no less than 80%. It also gave a melting point of 70 to 71 °C, an inhibition of growth at 200 ppm [3] of no less than 80% and an inhibition of growth at 20 ppm [4] of no less than 80%.
With `Cc1cccc2c1ncn2C1=NC(C)(C)C(F)(F)c2c(F)cccc21` [E-20] the inhibition of growth at 200 ppm (Fusarium culmorum) was no less than 80%, the inhibition of growth at 20 ppm (Pyrenophora teres) was no less than 80% and the inhibition of growth at 200 ppm [1] was no less than 80%. The inhibition of growth at 200 ppm [2] was no less than 80%, the inhibition of growth at 200 ppm [3] was no less than 80% and the inhibition of growth at 20 ppm [4] was no less than 80%. The inhibition of growth at 20 ppm (Sclerotinia sclerotiorum) was no less than 80%.
In the case of `COC(=O)c1cccc2c1ncn2C1=NC(C)(C)C(C)(C)c2c(F)cccc21` [E-24], the melting point is reported as 178 to 179 °C and the inhibition of growth at 20 ppm [4] is reported as no less than 80%.
For `Cc1ccc2c(ncn2C2=NC(C)(C)C(=O)c3ccccc32)c1C` [E-25], the inhibition of growth at 200 ppm (Fusarium culmorum) was no less than 80%, the inhibition of growth at 20 ppm (Pyrenophora teres) was no less than 80% and the inhibition of growth at 200 ppm [1] was no less than 80%. The inhibition of growth at 200 ppm [2] was no less than 80%, the melting point was 159 to 161 °C and the inhibition of growth at 200 ppm [3] was no less than 80%. It also gave an inhibition of growth at 20 ppm [4] of no less than 80% and an inhibition of growth at 20 ppm (Sclerotinia sclerotiorum) of no less than 80%.
With `CC1(C)N=C(n2cnc3c(Cl)cccc32)c2ccccc2C1=O` [E-29] the inhibition of growth at 200 ppm [3] was no less than 80%.
In the case of `Cc1ccc2c(ncn2C2=NC(C)(C)C(F)(F)c3ccccc32)c1Cl` [E-31], the inhibition of growth at 200 ppm (Fusarium culmorum) is reported as no less than 80%, the inhibition of growth at 200 ppm [1] is reported as no less than 80% and the inhibition of growth at 200 ppm [2] is reported as no less than 80%. For the same compound, the inhibition of growth at 200 ppm [3] was no less than 80%, the inhibition of growth at 20 ppm [4] was no less than 80% and the inhibition of growth at 20 ppm (Sclerotinia sclerotiorum) was no less than 80%. The inhibition of growth at 200 ppm (Gaeumannomyces graminis) was no less than 80%.
In the case of `CC1(C)N=C(n2cnc3c(Cl)cccc32)c2ccc(Cl)cc2C1(F)F` [E-37], the inhibition of growth at 200 ppm [1] is reported as no less than 80%, the melting point is reported as 197 to 200 °C and the inhibition of growth at 200 ppm [3] is reported as no less than 80%. The inhibition of growth at 20 ppm [4] was no less than 80%, the inhibition of growth at 20 ppm (Sclerotinia sclerotiorum) was no less than 80% and the inhibition of growth at 200 ppm (Gaeumannomyces graminis) was no less than 80%.
Compound `Cc1cccc2c1ncn2C1=NC(C)(C)Cc2c(Br)cccc21` [E-38] has an inhibition of growth at 200 ppm [1] of no less than 80%, an inhibition of growth at 200 ppm [2] of no less than 80% and a melting point of 52 to 54 °C. It also gave an inhibition of growth at 200 ppm [3] of no less than 80%, an inhibition of growth at 20 ppm [4] of no less than 80% and an inhibition of growth at 20 ppm (Sclerotinia sclerotiorum) of no less than 80%.
